According to ChEMBL document CHEMBL2074429, “ATP-dependent primary active transport of cysteinyl leukotrienes across liver canalicular membrane. Role of the ATP-dependent transport system for glutathione S-conjugates” (J Biol Chem, 1990):

Assays:
Assay type in all cases: functional, cell membranes, Plasma membrane vesicle
[1] = target: ATP-binding cassette sub-family C member 2 (Rattus norvegicus, UniProt Q63120); assay: (§1) TP_TRANSPORTER: uptake in liver plasma membrane vesicles of Wistar rat
[2] = target: T1, ATP-binding cassette sub-family C member 2 (ABCC2) (Rattus norvegicus, UniProt Q63120); assay: TP_TRANSPORTER: inhibition of LTC4 uptake (LTC4: 0.01 uM, Vinblastine: 100 uM) in liver plasma membrane vesicles of Wistar rat; parameters: scale not given: the % may be the effect or the level left; conditions: probe LTC4 (0.01 uM), read-out: Activity
[3] = target: T1, ATP-binding cassette sub-family C member 2 (ABCC2); assay: TP_TRANSPORTER: inhibition of LTC4 uptake (LTC4: 0.01 uM, Vincristine: 100 uM) in liver plasma membrane vesicles of Wistar rat; parameters: scale not given: the % may be the effect or the level left; conditions: probe LTC4 (0.01 uM), read-out: Activity
[4] = substrate: CCCCC/C=C\C\C=C/C=C/C=C/[C@@H](SC[C@@H](NC(=O)CC[C@H](N)C(=O)O)C(=O)NCC(=O)O)[C@@H](O)CCCC(=O)O; assay: as §1
[5] = substrate: CCCCC/C=C\C\C=C/C=C/C=C/[C@@H](SC[C@H](N)C(=O)NCC(=O)O)[C@@H](O)CCCC(=O)O; assay: as §1
[6] = substrate: CCCCC/C=C\C\C=C/C=C/C=C/[C@@H](SC[C@H](NC(C)=O)C(=O)O)[C@@H](O)CCCC(=O)O; assay: as §1

## CCCCC/C=C\C\C=C/C=C/C=C/[C@@H](SC[C@H](N)C(=O)O)[C@@H](O)CCCC(=O)O [LEUKOTRIEN E4]
[1]
  Activity: substrate [+]

## CC[C@]1(O)C[C@@H]2CN(CCc3c([nH]c4ccccc34)[C@@](C(=O)OC)(c3cc4c(cc3OC)N(C)[C@H]3[C@@](O)(C(=O)OC)[C@H](OC(C)=O)[C@]5(CC)C=CCN6CC[C@]43[C@@H]65)C2)C1 [VINBLASTINE]
[2]
  activity at 100 µM: 29%

## CC[C@]1(O)C[C@H]2CN(CCc3c([nH]c4ccccc34)[C@@](C(=O)OC)(c3cc4c(cc3OC)N(C=O)[C@H]3[C@@](O)(C(=O)OC)[C@H](OC(C)=O)[C@]5(CC)C=CCN6CC[C@]43[C@@H]65)C2)C1 [VINCRISTINE]
[3]
  activity at 100 µM: 42%

B1: ATP-binding cassette sub-family C member 2 (Rattus norvegicus) (protein)
chain: MDKFCNSTFWDLSLLESPEADLPLCFEQTVLVWIPLGFLWLLAPWQLYSVYRSRTKRSSITKFYLAKQVFVVFLLILAAIDLSLALTEDTGQATVPPVRYTNPILYLCTWLLVLAVQHSRQWCVRKNSWFLSLFWILSVLCGVFQFQTLIRALLKDSKSNMAYSYLFFVSYGFQIVLLILTAFSGPSDSTQTPSVTASFLSSITFSWYDRTVLKGYKHPLTLEDVWDIDEGFKTRSVTSKFEAAMTKDLQKARQAFQRRLQKSQRKPEATLHGLNKKQSQSQDVLVLEEAKKKSEKTTKDYPKSWLIKSLFKTFHVVILKSFILKLIHDLLVFLNPQLLKLLIGFVKSSNSYVWFGYICAILMFAVTLIQSFCLQSYFQHCFVLGMCVRTTVMSSIYKKALTLSNLARKQYTIGETVNLMSVDSQKLMDATNYMQLVWSSVIQITLSIFFLWRELGPSILAGVGVMVLLIPVNGVLATKIRNIQVQNMKNKDKRLKIMNEILSGIKILKYFAWEPSFQEQVQGIRKKELKNLLRFGQLQSLLIFILQITPILVSVVTFSVYVLVDSANVLNAEKAFTSITLFNILRFPLSMLPMVTSSILQASVSVDRLERYLGGDDLDTSAIRRVSNFDKAVKFSEASFTWDPDLEATIQDVNLDIKPGQLVAVVGTVGSGKSSLVSAMLGEMENVHGHITIQGSTAYVPQQSWIQNGTIKDNILFGSEYNEKKYQQVLKACALLPDLEILPGGDMAEIGEKGINLSGGQKQRVSLARAAYQDADIYILDDPLSAVDAHVGKHIFNKVVGPNGLLAGKTRIFVTHGIHFLPQVDEIVVLGKGTILEKGSYRDLLDKKGVFARNWKTFMKHSGPEGEATVNNDSEAEDDDDGLIPTMEEIPEDAASLAMRRENSLRRTLSRSSRSSSRRGKSLKNSLKIKNVNVLKEKEKEVEGQKLIKKEFVETGKVKFSIYLKYLQAVGWWSILFIILFYGLNNVAFIGSNLWLSAWTSDSDNLNGTNNSSSHRDMRIGVFGALGLAQGICLLISTLWSIYACRNASKALHGQLLTNILRAPMRFFDTTPTGRIVNRFSGDISTVDDLLPQTLRSWMMCFFGIAGTLVMICMATPVFAIIIIPLSILYISVQVFYVATSRQLRRLDSVTKSPIYSHFSETVTGLPIIRAFEHQQRFLAWNEKQIDINQKCVFSWITSNRWLAIRLELVGNLVVFCSALLLVIYRKTLTGDVVGFVLSNALNITQTLNWLVRMTSEAETNIVAVERISEYINVENEAPWVTDKRPPADWPRHGEIQFNNYQVRYRPELDLVLKGITCNIKSGEKVGVVGRTGAGKSSLTNCLFRILESAGGQIIIDGIDVASIGLHDLRERLTIIPQDPILFSGSLRMNLDPFNKYSDEEVWRALELAHLRSFVSGLQLGLLSEVTEGGDNLSIGQRQLLCLGRAVLRKSKILVLDEATAAVDLETDSLIQTTIRKEFSQCTVITIAHRLHTIMDSDKIMVLDNGKIVEYGSPEELLSNRGSFYLMAKEAGIENVNHTEL
[4]
  Km: 0.25 µM
[5]
  Km: 1.5 µM
[6]
  Km: 5.2 µM
